Reference: patent US20080255139A1, “Use Of 4- (4-Methylpiperazin-1-Ylmethyl)-N-[4-Methyl-3-(4-(Pyridin-3-Yl)Pyrimidin-2-Ylamino)Phenyl]-Benzamide to Inhibit the Tyrosine Kinase Receptor C-Fms” (priority 2004, published 2008)
Entries after “also recorded” stand apart in the source; their conditions may differ. Read-outs that look alike come from different tables or passages of the source.

Tests used:
[1] = system: M-CSF production by the cultured monocytes; assay: M-CSF ELISA on GM-CSF stimulated monocyte cultures; format: cell-based, human
Method: M-CSF ELISA. Monocytes are isolated from buffy coats from normal donors, as previously described, e.g. in Dewar A et al., 2003, Leukemia 17:1713-21. Monocyte cultures (1×10^5/mL) are established in 24 well plates in serum deprived medium (SDM; IMDM/1% BSA supplemented with 2 mM L-glutamine, 200 μg/mL transferrin, 10 μg/mL insulin (Actrapid®, Novo Nordisk), 10^−4 M β-mercaptoethanol, 50 μg/mL low density lipoproteins (Sigma)) and stimulated with 20 ng/mL GM-CSF. Supernatants are harvested at 24 h intervals for 5 days, and analysed for M-CSF using an R&D Systems DuoSete ELISA development system according to the manufacturers instructions.

[2] = system: FDC-cfms cells (M-CSF dependent, c-fms); settings: for Cell count, M-CSF, 12 H: 0 μM control 132174; for Cell count, M-CSF, 24 H: 0 μM control 310859; for Cell count, M-CSF, 48 H: 0 μM control 1453642
[3] = system: FDC-cfms cells (M-CSF dependent, c-fms); assay: cells; settings: 12 h, read-out: inhibition of cell growth, M-CSF sole stimulation
FDC-cfms cells = settings: for Cell count, IL-3, 12 H: 0 μM control 125433; for Cell count, IL-3, 24 H: 0 μM control 257726; for Cell count, IL-3, 48 H: 0 μM control 1123171

Cc1ccc(NC(=O)c2ccc(CN3CCN(C)CC3)cc2)cc1Nc1nccc(-c2cccnc2)n1 [Compound I, 4-(4-methylpiperazin-1-ylmethyl)-N-[4-methyl-3-(4-(pyridin-3-yl)pyrimidin-2-ylamino)phenyl]-benzamide]
effect on M-CSF production by the cultured monocytes ([1]; 1.0 μM Compound I, GM-CSF 20 ng/mL): no effect | decrease in M-CSF production ([1]; 5.0 μM, GM-CSF stimulated monocytes): 30% | cell counts, M-CSF ([2]; 24 h, 5.0 μM Compound I): lower than seeded values | Cell count, M-CSF, 12 H ([2]; Compound I 0.5 μM): 133296 cells/mL | Cell count, M-CSF, 24 H ([2]; Compound I 0.5 μM): 339185 cells/mL | Cell count, M-CSF, 48 H ([2]; Compound I 0.5 μM): 1577777 cells/mL | Cell count, M-CSF, 12 H ([2]; Compound I 1 μM): 130010 cells/mL | Cell count, M-CSF, 24 H ([2]; Compound I 1 μM): 311035 cells/mL | Cell count, M-CSF, 48 H ([2]; Compound I 1 μM): 1362802 cells/mL | Cell count, M-CSF, 12 H ([2]; Compound I 5 μM): 68324 cells/mL | Cell count, M-CSF, 24 H ([2]; Compound I 5 μM): 20830 cells/mL | Cell count, M-CSF, 48 H ([2]; Compound I 5 μM): 20149 cells/mL | Cell count, M-CSF, 12 H ([2]; Compound I […]): 117025 cells/mL | Cell count, M-CSF, 24 H ([2]; Compound I […]): 174818 cells/mL | Cell count, M-CSF, 48 H ([2]; Compound I […]): 295134 cells/mL | inhibition at 5 µM [3]: 50% | effect on cell growth, IL-3 stimulated control cultures (FDC-cfms cells; 12 or 24 h, 0.5-5.0 μM Compound I): no Compound I-specific effects on cell growth; also recorded: No effect | Cell count, IL-3, 12 H (FDC-cfms cells; Compound I 0.5 μM): 131724 cells/mL | Cell count, IL-3, 24 H (FDC-cfms cells; Compound I 0.5 μM): 281975 cells/mL | Cell count, IL-3, 48 H (FDC-cfms cells; Compound I 0.5 μM): 1107666 cells/mL | Cell count, IL-3, 12 H (FDC-cfms cells; Compound I 1 μM): 126472 cells/mL | Cell count, IL-3, 24 H (FDC-cfms cells; Compound I 1 μM): 264007 cells/mL | Cell count, IL-3, 48 H (FDC-cfms cells; Compound I 1 μM): 1068150 cells/mL | Cell count, IL-3, 12 H (FDC-cfms cells; Compound I 5 μM): 106917 cells/mL | Cell count, IL-3, 24 H (FDC-cfms cells; Compound I 5 μM): 197435 cells/mL | Cell count, IL-3, 48 H (FDC-cfms cells; Compound I 5 μM): 682771 cells/mL | Cell count, IL-3, 12 H (FDC-cfms cells; Compound I […]): 131857 cells/mL | Cell count, IL-3, 24 H (FDC-cfms cells; Compound I […]): 247613 cells/mL | Cell count, IL-3, 48 H (FDC-cfms cells; Compound I […]): 940233 cells/mL
